In patent publication EP0051687A1, “Maleimides and process for the preparation of same” (MITSUI TOATSU CHEMICALS, Inc., priority 1980, dated 1982):

Assay: Solubility in organic solvents at room temperature
Assay type: physicochemical

- Solubility of 2-(4'-hydroxyphenyl)-2-(4"-maleimidophenyl) propane (at room temperature ) (Organic Solvent: Acetone): 50 wt.% or higher
- Solubility of 2-(4'-hydroxyphenyl)-2-(4"-maleimidophenyl) propane (at room temperature ) (Organic Solvent: Dimethylformamide): 50 wt.% or higher
- Solubility of 2-(4'-hydroxyphenyl)-2-(4"-maleimidophenyl) propane (at room temperature ) (Organic Solvent: Dioxane): 36 wt.%
- Solubility of 2-(4'-hydroxyphenyl)-2-(4"-maleimidophenyl) propane (at room temperature ) (Organic Solvent: Ethanol): 11 wt.%
- Solubility of 2-(4'-hydroxyphenyl)-2-(4"-maleimidophenyl) propane (at room temperature ) (Organic Solvent: Methanol): 20 wt.%
- Solubility of 2-(4'-hydroxyphenyl)-2-(4"-maleimidophenyl) propane (at room temperature ) (Organic Solvent: Methyl ethyl ketone): 46 wt.%
- Solubility of 2-(4'-hydroxyphenyl)-2-(4"-maleimidophenyl) propane (at room temperature ) (Organic Solvent: Tetrahydrofuran): 50 wt.% or higher
SMILES: CC(C)(c1ccc(O)cc1)c1ccc(N2C(=O)C=CC2=O)cc1 [2-(4'-hydroxyphenyl)-2-(4"-maleimidophenyl) propane]
